This passage reports IC50 results from patent publication US10000456B2, “Polycyclic compounds as lysophosphatidic acid receptor antagonists” (AMIRA PHARMACEUTICALS, INC., priority 2009, dated 2018).

This test concerns A2058 human melanoma cells. Nature of the test: LPA1 chemotaxis assay. In kind it is cell-based. The following applies: LPA 100 nM, read-out: IC50, inhibition of LPA-driven chemotaxis. Here is the method:
Chemotaxis of the A2058 human melanoma cells was measured using the Neuroprobe CHEMOTX® System plates ([…], 5.7 mm diameter sites). The filter sites were coated with 0.001% fibronectin (Sigma) in 20 mM Hepes, pH 7.4 and allowed to dry. A2058 cells were serum-starved for 24 hours, then harvested with Cell Stripper and resuspended in DMEM containing 0.1% fatty-acid-free bovine serum albumin (BSA) to a concentration of 1×10^6/ml. Cells were mixed with an equal volume of test compound (2×) in DMEM containing 0.1% fatty-acid-free BSA and incubated at 37° C. for 15 minutes. LPA (100 nM in DMEM containing 0.1% fatty-acid-free BSA) or vehicle was added to each well of the lower chamber and 50 μl of the cell suspension/test compound mix was applied to the upper portion of the CHEMOTX® plate. Plates were incubated at 37° C. for three hours and then the cells removed from the upper portion by rinsing with PBS and scraping. The filter was dried then stained with HEMA 3® Staining System (Fisher Scientific). The absorbance of the filter was read at 590 nm and IC50s were determined using SYMYX® Assay Explorer.

SMILES strings stand for the structures. Where only a bound is given, the exact number is not on record here.

In the case of `Cc1noc(-c2ccc(-c3ccc(C4(C(=O)NS(C)(=O)=O)CC4)cc3)cc2)c1C(O)c1cn(Cc2ccccc2)nn1` (single isomer, unassigned) [Compound 91, N-[1-(4′-{4-[(1-Benzyl-1H-[1,2,3]triazol-4-yl)-hydroxy-methyl]-3-methyl-isoxazol-5-yl}-biphenyl-4-yl)-cyclopropanecarbonyl]-methanesulfonamide], the IC50 is below 100 nM.

On to `Cc1noc(-c2ccc(-c3ccc(C4(C(=O)NS(C)(=O)=O)CC4)cc3)cc2)c1C(O)c1nnc(Cc2ccccc2)o1` (single isomer, unassigned) [Compound 92, N-[1-(4′-{4-[(5-Benzyl-[1,3,4]oxadiazol-2-yl)-hydroxy-methyl]-3-methyl-isoxazol-5-yl}-biphenyl-4-yl)-cyclopropanecarbonyl]-methanesulfonamide], for which the IC50 is below 100 nM.

As to `Cc1noc(-c2ccc(-c3ccc(C4(C(=O)O)CC4)cc3)cc2)c1C(O)c1nnc(Cc2ccccc2)o1` (stereo not drawn) [Compound 13, 1-(4′-{4-[(5-Benzyl-[1,3,4]oxadiazol-2-yl)-hydroxy-methyl]-3-methyl-isoxazol-5-yl}-biphenyl-4-yl)-cyclopropanecarboxylic acid], the IC50 is below 100 nM.

Turning to `Cc1noc(-c2ccc(-c3ccc(C4(C(=O)O)CC4)cc3)cc2)c1C(O)c1cn(C(C)c2ccccc2)nn1` (stereo not drawn) [Compound 23, 1-[4′-(4-{Hydroxy-[1-(1-phenyl-ethyl)-1H-[1,2,3]triazol-4-yl]-methyl}-3-methyl-isoxazol-5-yl)-biphenyl-4-yl]-cyclopropanecarboxylic acid], the IC50 was below 100 nM.

In the case of `Cc1noc(-c2ccc(-c3ccc(C4(C(=O)O)CC4)cc3)cc2)c1C(O)c1cccc(Cc2ccccc2)c1` (stereo not drawn) [Compound 26, 1-(4′-{4-[(3-Benzyl-phenyl)-hydroxy-methyl]-3-methyl-isoxazol-5-yl}-biphenyl-4-yl)-cyclopropanecarboxylic acid], the IC50 is below 100 nM.

Take `Cc1noc(-c2ccc(-c3ccc(C4(C(=O)O)CC4)cc3)cc2)c1C(O)c1cncc(Cc2ccccc2)c1` (stereo not drawn) [Compound 27, 1-(4′-{4-[(5-Benzyl-pyridin-3-yl)-hydroxy-methyl]-3-methyl-isoxazol-5-yl}-biphenyl-4-yl)-cyclopropanecarboxylic acid]: the IC50 was below 100 nM.

Take `Cc1noc(-c2ccc(-c3ccc(C4(C(=O)O)CC4)cc3)cc2)c1[C@@H](O)c1cn([C@H](C)c2ccccc2)nn1` [Compound 32, 1-[4′-(4-{(R)-Hydroxy-[1-((R)-1-phenyl-ethyl)-1H-[1,2,3]triazol-4-yl]-methyl}-3-methyl-isoxazol-5-yl)-biphenyl-4-yl]-cyclopropanecarboxylic acid]: the IC50 is below 100 nM.

On to `Cc1noc(-c2ccc(-c3ccc(C4(C(=O)O)CC4)cc3)cc2)c1Nc1cccc(-c2ccccc2)n1` [Compound 33, 1-{4′-[3-Methyl-4-(6-phenyl-pyridin-2-ylamino)-isoxazol-5-yl]-biphenyl-4-yl}-cyclopropanecarboxylic acid], for which the IC50 is below 100 nM.

As for `Cc1noc(-c2ccc(-c3ccc(C4(C(=O)O)CC4)cc3)cc2)c1Nc1cccc(Cc2ccccc2)n1` [Compound 38, 1-{4′-[4-(6-Benzyl-pyridin-2-ylamino)-3-methyl-isoxazol-5-yl]-biphenyl-4-yl}-cyclopropanecarboxylic acid], the IC50 was below 100 nM.

On to `Cc1noc(-c2ccc(-c3ccc(C4(C(=O)O)CC4)cc3)cc2)c1Nc1cccc(-c2ccccc2)c1` [Compound 39, 1-{4′-[4-(Biphenyl-3-ylamino)-3-methyl-isoxazol-5-yl]-biphenyl-4-yl}-cyclopropanecarboxylic acid], for which the IC50 was below 100 nM.

Turning to `Cc1noc(-c2ccc(-c3ccc(C4(C(=O)O)CC4)cc3)cc2)c1Nc1cccc(-c2cccc(C(F)(F)F)c2)n1` [Compound 41, 1-(4′-{3-Methyl-4-[6-(3-trifluoromethyl-phenyl)-pyridin-2-ylamino]-isoxazol-5-yl}-biphenyl-4-yl)-cyclopropanecarboxylic acid], the IC50 is below 100 nM.

For `Cc1noc(-c2ccc(-c3ccc(C4(C(=O)O)CC4)cc3)cc2)c1Nc1nnc(Cc2ccccc2)o1` [Compound 44, 1-{4′-[4-(5-Benzyl-[1,3,4]oxadiazol-2-ylamino)-3-methyl-isoxazol-5-yl]-biphenyl-4-yl}-cyclopropanecarboxylic acid], the IC50 was below 100 nM.

Consider `Cc1noc(-c2ccc(-c3ccc(C4(C(=O)O)CC4)cc3)cc2)c1Nc1cccc(Cc2ccccc2F)n1` [Compound 45, 1-(4′-{4-[6-(2-Fluoro-benzyl)-pyridin-2-ylamino]-3-methyl-isoxazol-5-yl}-biphenyl-4-yl)-cyclopropanecarboxylic acid], for which the IC50 was below 100 nM.

`Cc1noc(-c2ccc(-c3ccc(C4(C(=O)O)CC4)cc3)cc2)c1Nc1cccc(Cc2cccc(F)c2)n1` [Compound 46, 1-(4′-{4-[6-(3-Fluoro-benzyl)-pyridin-2-ylamino]-3-methyl-isoxazol-5-yl}-biphenyl-4-yl)-cyclopropanecarboxylic acid]: the IC50 was below 100 nM.

`Cc1noc(-c2ccc(-c3ccc(C4(C(=O)O)CC4)cc3)cc2)c1Nc1cccc(Cc2ccc(F)cc2)n1` [Compound 47, 1-(4′-{4-[6-(4-Fluoro-benzyl)-pyridin-2-ylamino]-3-methyl-isoxazol-5-yl}-biphenyl-4-yl)-cyclopropanecarboxylic acid]: the IC50 was below 100 nM.

In the case of `Cc1noc(-c2ccc(-c3ccc(C4(C(=O)O)CC4)cc3)cc2)c1Nc1cccc(Cc2ccccc2)c1` [Compound 49, 1-{4′-[4-(3-Benzyl-phenylamino)-3-methyl-isoxazol-5-yl]-biphenyl-4-yl}-cyclopropanecarboxylic acid], the IC50 was below 100 nM.

In the case of `Cc1noc(-c2ccc(-c3ccc(C4(C(=O)O)CC4)cc3)cc2)c1Nc1cccc(-c2cccc(F)c2)n1` [Compound 52, 1-(4′-{4-[6-(3-Fluoro-phenyl)-pyridin-2-ylamino]-3-methyl-isoxazol-5-yl}-biphenyl-4-yl)-cyclopropanecarboxylic acid], the IC50 is below 100 nM.

Take `Cc1noc(-c2ccc(-c3ccc(C4(C(=O)O)CC4)cc3)cc2)c1Nc1cncc(-c2ccccc2)c1` [Compound 58, 1-{4′-[3-Methyl-4-(5-phenyl-pyridin-3-ylamino)-isoxazol-5-yl]-biphenyl-4-yl}-cyclopropanecarboxylic acid]: the IC50 was below 100 nM.

As for `Cc1noc(-c2ccc(-c3ccc(C4(C(=O)O)CC4)cc3)cc2)c1Nc1cncc(-c2cccc(F)c2)c1` [Compound 59, 1-(4′-{4-[5-(3-Fluoro-phenyl)-pyridin-3-ylamino]-3-methyl-isoxazol-5-yl}-biphenyl-4-yl)-cyclopropanecarboxylic acid], the IC50 is below 100 nM.

For the compound `Cc1noc(-c2ccc(-c3ccc(C4(C(=O)O)CC4)cc3)cc2)c1Nc1cccc(-c2ccccc2Cl)n1` [Compound 60, 1-(4′-{4-[6-(2-Chloro-phenyl)-pyridin-2-ylamino]-3-methyl-isoxazol-5-yl}-biphenyl-4-yl)-cyclopropanecarboxylic acid], the IC50 was below 100 nM.

For `Cc1noc(-c2ccc(-c3ccc(C4(C(=O)O)CC4)cc3)cc2)c1Nc1cncc(-c2ccccc2Cl)c1` [Compound 64, 1-(4′-{4-[5-(2-Chloro-phenyl)-pyridin-3-ylamino]-3-methyl-isoxazol-5-yl}-biphenyl-4-yl)-cyclopropanecarboxylic acid], the IC50 was below 100 nM.

Turning to `Cc1noc(-c2ccc(-c3ccc(C4(C(=O)O)CC4)cc3)cc2)c1Nc1nccc(-c2ccccc2)n1` [Compound 66, 1-{4′-[3-Methyl-4-(4-phenyl-pyrimidin-2-ylamino)-isoxazol-5-yl]-biphenyl-4-yl}-cyclopropanecarboxylic acid], the IC50 is below 100 nM.

As for `Cc1noc(-c2ccc(-c3ccc(C4(C(=O)O)CC4)cc3)cc2)c1Nc1cc(-c2ccccc2)ccn1` [Compound 67, 1-{4′-[3-Methyl-4-(4-phenyl-pyridin-2-ylamino)-isoxazol-5-yl]-biphenyl-4-yl}-cyclopropanecarboxylic acid], the IC50 was below 100 nM.

`Cc1noc(-c2ccc(-c3ccc(C4(C(=O)O)CC4)cc3)cc2)c1Nc1cncc(-c2cccc(C(F)(F)F)c2)c1` [Compound 68, 1-(4′-{3-Methyl-4-[5-(3-trifluoromethyl-phenyl)-pyridin-3-ylamino]-isoxazol-5-yl}-biphenyl-4-yl)-cyclopropanecarboxylic acid]: the IC50 is below 100 nM.

For `COc1ccc(F)cc1-c1cccc(Nc2c(C)noc2-c2ccc(-c3ccc(C4(C(=O)O)CC4)cc3)cc2)n1` [Compound 75, 1-(4′-{4-[6-(5-Fluoro-2-methoxy-phenyl)-pyridin-2-ylamino]-3-methyl-isoxazol-5-yl}-biphenyl-4-yl)-cyclopropanecarboxylic acid], the IC50 was below 100 nM.

On to `Cc1noc(-c2ccc(-c3ccc(C4(C(=O)O)CC4)cc3)cc2)c1Nc1cccc(-c2cc(F)ccc2Cl)n1` [Compound 79, 1-(4′-{4-[6-(2-Chloro-5-fluoro-phenyl)-pyridin-2-ylamino]-3-methyl-isoxazol-5-yl}-biphenyl-4-yl)-cyclopropanecarboxylic acid], for which the IC50 is below 100 nM.

Take `Cc1noc(-c2ccc(-c3ccc(C4(C(=O)O)CC4)cc3)cc2)c1Nc1cccc(-c2cccc(F)c2Cl)n1` [Compound 81, 1-(4′-{4-[6-(2-Chloro-3-fluoro-phenyl)-pyridin-2-ylamino]-3-methyl-isoxazol-5-yl}-biphenyl-4-yl)-cyclopropanecarboxylic acid]: the concentration for half-maximal inhibition (IC50) is below 100 nM.

What is called IC50 is the concentration that gives 50% inhibition.
